# Measured values taken from patent publication US6184217A (Cephalon, Inc., priority 1997, dated 2001).
# Columns and labels:
# [1] = tested on: acrylamide-induced peripheral neuropathy; test: Acrylamide-induced peripheral neuropathy, landing foot spread; assay type: in vivo, Sprague-Dawley rats; settings: 0.3 mg/kg/day s.c.; acrylamide 50 mg/kg IP three times/week for three weeks (FIG. 5)
# From the text: Acrylamide produces a "dying back" central-peripheral distal neuropathy in humans and animals. The lesion is a mixed sensory/motor neuropathy characterized by weakness, tremor and ataxia in humans. In animals, acrylamide produces changes in behavior (sensory, motor and proprioceptive), histopathology, electrophysiology and weight loss. In the periphery, large diameter, long axon, Ab fibers are preferentially affected by acrylamide. In rats, acrylamide administration produces an axonopathy as measured by increased landing foot spread (LFS), a measure of proprioception.
# It differs from other chemically-induced models (such as chemotherapeutic models) in that the duration is relatively short (3 weeks) and the animals are in relatively good health.
# Male Sprague-Dawley rats weighing 250 grams at the start of the experiment were used. Acrylamide (50 mg/kg, IP) was administered three times/week for three weeks. The animals were dropped from a height of 30 cm and the distance between the hindfeet was recorded (Edwards, P. M. and Parker, V. H. (1977) "A simple, sensitive, and objective method for early assessment of acrylamide neuropathy in rats." Toxicol. Appl Pharmacol, 40:589-591). Compound A (0.1, 0.3 or 1.0 mg/kg, s.c. in 5% solutol) was administered once daily for the duration of the experiment.
# TNF-α = test: LPS-induced TNF-α in the serum of mice; assay type: in vivo, C57BL mice; settings: 30 mg/kg ip 2 h before LPS
# Description: Sixty female C57BL mice (4-6 weeks old) were divided into six groups, each with 10 animals. Three groups (1,3,5) received vehicle only (PBS containing 0.1% TEA (tetraethyl ammonium hydrochloride)), 200 μl/mouse via intraperitoneal (ip) administration. The other three groups (2,4,6) received Compound A (30 mg/kg in 200 μl, ip) of vehicle (PBS containing 10% of the ethyl ester of 12-hydroxystearic acid; solutol). Two hours later, the animals received by ip administration, 0.1 mg/kg of LPS (groups 1 & 2), 0.5 mg/kg of LPS (groups 3 & 4), and 1.0 mg/kg of LPS (groups 5 % 6). Two hours after LPS administration, all of the animals were sacrificed, and plasma samples were obtained and assayed for their […] and IL-1β content. Assays were carried out as described in Example 8.
# The numbers in are the group numbers as described above. N indicates the number of animals from which plasma measurements where made. ND=not done.
# [2] = tested on: cholinergic neurons, striatal neurons, and sensory neurons; settings: cited from earlier work
smiles,measurement,setting,value
CCSCc1ccc2c(c1)c1c3c(c4c5cc(CSCC)ccc5n5c4c1n2C1CC(O)(C(=O)OC)C5(C)O1)CNC3=O (centres unmarked) [Compound A],increase in landing foot spread (LFS) produced by acrylamide,[1],reduced the magnitude of the increase in LFS
same,TNF-α,"TNF-α; LPS dose 0.1 ip, vehicle 6129 ± 676, N = 10",2714 ± 449 pg/mL
same,TNF-α,"TNF-α; LPS dose 0.5 ip, vehicle 7141 ± 1113, N = 7",3766 ± 375 pg/mL
same,TNF-α,"TNF-α; LPS dose 1.0 ip, vehicle 3745 ± 610, N = 9",2399 ± 1399 pg/mL
same,"function of cholinergic neurons, striatal neurons, and sensory neurons",[2],"enhance the function of cholinergic neurons, striatal neurons, and sensory neurons"
